Earlier results as cited in US8048850B2, “Covalent conjugates between artemisinin-related endoperoxides and iron-carrying proteins and methods of use” (University of Washington, priority 2002, dated 2011).

Conditions: cancer patient; oral dose of 50 mg per day; intramuscular dose of 60 mg/day; period of 9 months

C[C@H]1[C@H](OC(=O)CCC(=O)O)O[C@@H]2O[C@@]3(C)CC[C@H]4[C@H](C)CC[C@@H]1[C@@]24OO3 [artesunate]
adverse side effects: No apparent adverse side effects
